Test results from ChEMBL document CHEMBL3885861, “Open TG-GATES”.

Organism: Rattus norvegicus
Experiment: Open TG-GATES - Regimen: Daily Repeat
Assay type: toxicity, organism-based, Sprague-Dawley
Design: regimen Daily Repeat, gender Male, age 6 weeks
Conditions: in vivo, po, route gavage; for APTT / Bas / Eos / Fbg / Hb / Ht / Lym / MCH / MCHC / MCV / Mono / Neu / PT / Plat / RBC / Ret / WBC: tissue Blood; for KIDNEY_L / KIDNEY_R / KIDNEY_TOTAL: tissue Kidney; for LIVER: tissue Liver; for A/G / ALP / ALT / AST / BUN / CRE / Ca / Cl / DBIL / GLC / IP / K / LDH / Na / PL / RALB / TBIL / TC / TG / TP / gamma-GTP: tissue Plasma
[1] = 30 mg/kg, 72 h, dose level Middle, time 3 day
[2] = 30 mg/kg, […], dose level Middle, time 7 day
[3] = 30 mg/kg, […], dose level Middle, time 14 day
[4] = 30 mg/kg, […], dose level Middle, time 28 day
[5] = 100 mg/kg, 72 h, dose level High, time 3 day
[6] = 100 mg/kg, […], dose level High, time 7 day
[7] = 100 mg/kg, […], dose level High, time 14 day
[8] = 100 mg/kg, […], dose level High, time 28 day

## O=C1CN(/N=C/c2ccc([N+](=O)[O-])o2)C(=O)N1 [NITROFURANTOIN]
[1]
  TERMINAL_BW: 243.4 g
  APTT: 18.9 s
  Bas: 0%
  Eos: 1%
  Fbg: 216.2 mg/dL
  Hb: 13.6 g/dL
  Ht: 38.5%
  Lym: 79.4%
  MCH: 22 pg
  MCHC: 35.3%
  MCV: 62.3 fL
  Mono: 3.2%
  Neu: 15.4%
  PT: 12.6 s
  Plat: 121.2 x10_4/uL
  RBC: 617.8 x10_4/ul
  Ret: 6.3%
  WBC: 106.9 x10_2/uL
  KIDNEY_L: 1 g
  KIDNEY_R: 1 g
  KIDNEY_TOTAL: 2.1 g
  LIVER: 11.6 g
  A/G: 1.6
  ALP: 1110 IU/L
  ALT: 35.4 IU/L
  AST: 67.2 IU/L
  BUN: 14.2 mg/dL
  CRE: 0.4 mg/dL
  Ca: 10.6 mg/dL
  Cl: 101.6 meq/L
  DBIL: 0.094 mg/dL
  GLC: 210.8 mg/dL
  IP: 7.6 mg/dL
  K: 3.8 meq/L
  LDH: 212 IU/L
  Na: 140.4 meq/L
  PL: 140.2 mg/dL
  RALB: 3.5 g/dL
  TBIL: 0.1 mg/dL
  TC: 70.6 mg/dL
  TG: 80.2 mg/dL
  TP: 5.6 g/dL
  gamma-GTP: 1 IU/L
[2]
  TERMINAL_BW: 275.5 g
  APTT: 18.5 s
  Bas: 0%
  Eos: 1%
  Fbg: 223 mg/dL
  Hb: 13.5 g/dL
  Ht: 38%
  Lym: 81%
  MCH: 21.3 pg
  MCHC: 35.6%
  MCV: 60 fL
  Mono: 2.2%
  Neu: 15.4%
  PT: 12.6 s
  Plat: 125.8 x10_4/uL
  RBC: 634.2 x10_4/ul
  Ret: 5.3%
  WBC: 120.4 x10_2/uL
  KIDNEY_L: 1.1 g
  KIDNEY_R: 1.1 g
  KIDNEY_TOTAL: 2.2 g
  LIVER: 12.9 g
  A/G: 1.3
  ALP: 965 IU/L
  ALT: 30.6 IU/L
  AST: 57.6 IU/L
  BUN: 17.6 mg/dL
  CRE: 0.4 mg/dL
  Ca: 10.7 mg/dL
  Cl: 101.8 meq/L
  DBIL: 0.1 mg/dL
  GLC: 197.6 mg/dL
  IP: 7.1 mg/dL
  K: 4.2 meq/L
  LDH: 193 IU/L
  Na: 140.4 meq/L
  PL: 164 mg/dL
  RALB: 3.3 g/dL
  TBIL: 0.2 mg/dL
  TC: 80.6 mg/dL
  TG: 163.2 mg/dL
  TP: 5.8 g/dL
  gamma-GTP: 1.2 IU/L
[3]
  TERMINAL_BW: 332 g
  APTT: 18.9 s
  Bas: 0%
  Eos: 0.8%
  Fbg: 224 mg/dL
  Hb: 14.4 g/dL
  Ht: 41.6%
  Lym: 79.4%
  MCH: 20.8 pg
  MCHC: 34.7%
  MCV: 60 fL
  Mono: 2.2%
  Neu: 16.8%
  PT: 12.4 s
  Plat: 120.1 x10_4/uL
  RBC: 693 x10_4/ul
  Ret: 4.7%
  WBC: 121.2 x10_2/uL
  KIDNEY_L: 1.4 g
  KIDNEY_R: 1.4 g
  KIDNEY_TOTAL: 2.7 g
  LIVER: 14.8 g
  A/G: 1.4
  ALP: 790.8 IU/L
  ALT: 33.2 IU/L
  AST: 58 IU/L
  BUN: 15.8 mg/dL
  CRE: 0.4 mg/dL
  Ca: 10.4 mg/dL
  Cl: 102.8 meq/L
  DBIL: 0.1 mg/dL
  GLC: 212.6 mg/dL
  IP: 7.1 mg/dL
  K: 3.7 meq/L
  LDH: 180.8 IU/L
  Na: 140.6 meq/L
  PL: 161.4 mg/dL
  RALB: 3.4 g/dL
  TBIL: 0.2 mg/dL
  TC: 78 mg/dL
  TG: 126.6 mg/dL
  TP: 5.9 g/dL
  gamma-GTP: 1.2 IU/L
[4]
  TERMINAL_BW: 404.8 g
  APTT: 20.8 s
  Bas: 0%
  Eos: 1.2%
  Fbg: 215 mg/dL
  Hb: 15.3 g/dL
  Ht: 43.5%
  Lym: 80.8%
  MCH: 19.8 pg
  MCHC: 35.1%
  MCV: 56.5 fL
  Mono: 2.6%
  Neu: 14.2%
  PT: 12.7 s
  Plat: 118.4 x10_4/uL
  RBC: 770.8 x10_4/ul
  Ret: 2.9%
  WBC: 92.9 x10_2/uL
  KIDNEY_L: 1.5 g
  KIDNEY_R: 1.5 g
  KIDNEY_TOTAL: 3 g
  LIVER: 16.9 g
  A/G: 1.4
  ALP: 568.2 IU/L
  ALT: 31.6 IU/L
  AST: 54.4 IU/L
  BUN: 16.4 mg/dL
  CRE: 0.5 mg/dL
  Ca: 10.5 mg/dL
  Cl: 103.2 meq/L
  DBIL: 0.1 mg/dL
  GLC: 208 mg/dL
  IP: 6.3 mg/dL
  K: 3.5 meq/L
  LDH: 133.4 IU/L
  Na: 140.6 meq/L
  PL: 146 mg/dL
  RALB: 3.6 g/dL
  TBIL: 0.2 mg/dL
  TC: 66.4 mg/dL
  TG: 137.6 mg/dL
  TP: 6.1 g/dL
  gamma-GTP: 1.4 IU/L
[5]
  TERMINAL_BW: 241.1 g
  APTT: 17.7 s
  Bas: 0%
  Eos: 1%
  Fbg: 231 mg/dL
  Hb: 13.4 g/dL
  Ht: 37.9%
  Lym: 77.8%
  MCH: 21.4 pg
  MCHC: 35.5%
  MCV: 60.5 fL
  Mono: 3.2%
  Neu: 15.2%
  PT: 12.4 s
  Plat: 130.5 x10_4/uL
  RBC: 628.2 x10_4/ul
  Ret: 4.9%
  WBC: 70.5 x10_2/uL
  KIDNEY_L: 1.1 g
  KIDNEY_R: 1.1 g
  KIDNEY_TOTAL: 2.2 g
  LIVER: 11.7 g
  A/G: 1.5
  ALP: 909.6 IU/L
  ALT: 35.2 IU/L
  AST: 67.8 IU/L
  BUN: 14.2 mg/dL
  CRE: 0.4 mg/dL
  Ca: 10.6 mg/dL
  Cl: 100.6 meq/L
  DBIL: 0.1 mg/dL
  GLC: 209.4 mg/dL
  IP: 7.1 mg/dL
  K: 3.9 meq/L
  LDH: 220.2 IU/L
  Na: 139.6 meq/L
  PL: 153.8 mg/dL
  RALB: 3.3 g/dL
  TBIL: 0.1 mg/dL
  TC: 75 mg/dL
  TG: 110.8 mg/dL
  TP: 5.4 g/dL
  gamma-GTP: 1 IU/L
[6]
  TERMINAL_BW: 266.8 g
  APTT: 18.4 s
  Bas: 0%
  Eos: 1%
  Fbg: 217.8 mg/dL
  Hb: 13.5 g/dL
  Ht: 38.1%
  Lym: 82.6%
  MCH: 21.6 pg
  MCHC: 35.4%
  MCV: 61.1 fL
  Mono: 2.2%
  Neu: 13.2%
  PT: 12.8 s
  Plat: 124 x10_4/uL
  RBC: 624.8 x10_4/ul
  Ret: 5.1%
  WBC: 120.6 x10_2/uL
  KIDNEY_L: 1.2 g
  KIDNEY_R: 1.2 g
  KIDNEY_TOTAL: 2.5 g
  LIVER: 12.6 g
  A/G: 1.5
  ALP: 995.4 IU/L
  ALT: 31.2 IU/L
  AST: 63.8 IU/L
  BUN: 16 mg/dL
  CRE: 0.4 mg/dL
  Ca: 10.8 mg/dL
  Cl: 102.2 meq/L
  DBIL: 0.1 mg/dL
  GLC: 187 mg/dL
  IP: 7 mg/dL
  K: 4.1 meq/L
  LDH: 218.8 IU/L
  Na: 140.4 meq/L
  PL: 142.4 mg/dL
  RALB: 3.4 g/dL
  TBIL: 0.2 mg/dL
  TC: 70.2 mg/dL
  TG: 111 mg/dL
  TP: 5.7 g/dL
  gamma-GTP: 1 IU/L
[7]
  TERMINAL_BW: 314.4 g
  APTT: 19.8 s
  Bas: 0%
  Eos: 0.8%
  Fbg: 225.4 mg/dL
  Hb: 14.2 g/dL
  Ht: 40.7%
  Lym: 81.8%
  MCH: 19.8 pg
  MCHC: 34.8%
  MCV: 56.9 fL
  Mono: 2.2%
  Neu: 14.4%
  PT: 12.4 s
  Plat: 133.3 x10_4/uL
  RBC: 717.2 x10_4/ul
  Ret: 3.9%
  WBC: 115.5 x10_2/uL
  KIDNEY_L: 1.4 g
  KIDNEY_R: 1.4 g
  KIDNEY_TOTAL: 2.8 g
  LIVER: 14.5 g
  A/G: 1.4
  ALP: 864.2 IU/L
  ALT: 34.8 IU/L
  AST: 74 IU/L
  BUN: 15.4 mg/dL
  CRE: 0.4 mg/dL
  Ca: 10.3 mg/dL
  Cl: 102.2 meq/L
  DBIL: 0.084 mg/dL
  GLC: 214.8 mg/dL
  IP: 6.6 mg/dL
  K: 3.5 meq/L
  LDH: 208.8 IU/L
  Na: 140.8 meq/L
  PL: 158.8 mg/dL
  RALB: 3.4 g/dL
  TBIL: 0.1 mg/dL
  TC: 79.2 mg/dL
  TG: 110 mg/dL
  TP: 6 g/dL
  gamma-GTP: 1.6 IU/L
[8]
  TERMINAL_BW: 380.6 g
  APTT: 20.5 s
  Bas: 0%
  Eos: 1%
  Fbg: 216.2 mg/dL
  Hb: 14.7 g/dL
  Ht: 42.6%
  Lym: 83.8%
  MCH: 18.9 pg
  MCHC: 34.6%
  MCV: 54.7 fL
  Mono: 2.4%
  Neu: 11.4%
  PT: 12.6 s
  Plat: 106 x10_4/uL
  RBC: 780.2 x10_4/ul
  Ret: 3.2%
  WBC: 143.7 x10_2/uL
  KIDNEY_L: 1.7 g
  KIDNEY_R: 1.7 g
  KIDNEY_TOTAL: 3.3 g
  LIVER: 16.2 g
  A/G: 1.5
  ALP: 573.8 IU/L
  ALT: 35.4 IU/L
  AST: 63.8 IU/L
  BUN: 15 mg/dL
  CRE: 0.5 mg/dL
  Ca: 10.3 mg/dL
  Cl: 104 meq/L
  DBIL: 0.1 mg/dL
  GLC: 218.6 mg/dL
  IP: 6 mg/dL
  K: 3.7 meq/L
  LDH: 159.4 IU/L
  Na: 141.2 meq/L
  PL: 155.2 mg/dL
  RALB: 3.6 g/dL
  TBIL: 0.2 mg/dL
  TC: 75.6 mg/dL
  TG: 109.8 mg/dL
  TP: 6 g/dL
  gamma-GTP: 0.8 IU/L
